The results in this text go back to patent US20260217652A1, “PHENYL-SUBSTITUTED HETEROARYL COMPOUND AND PHARMACEUTICAL COMPOSITION COMPRISING SAME, PREPARATION METHOD THEREFOR AND USE THEREOF” (SHANGHAI MEIYUE BIOTECH DEVELOPMENT CO., LTD., priority 2023, published 2026).

A word on the IC50: it is the concentration needed to halve the response being measured. Low readings indicate inhibition by little substance, high ones a need for much substance.

T1 sequence (Q16539 whole entry): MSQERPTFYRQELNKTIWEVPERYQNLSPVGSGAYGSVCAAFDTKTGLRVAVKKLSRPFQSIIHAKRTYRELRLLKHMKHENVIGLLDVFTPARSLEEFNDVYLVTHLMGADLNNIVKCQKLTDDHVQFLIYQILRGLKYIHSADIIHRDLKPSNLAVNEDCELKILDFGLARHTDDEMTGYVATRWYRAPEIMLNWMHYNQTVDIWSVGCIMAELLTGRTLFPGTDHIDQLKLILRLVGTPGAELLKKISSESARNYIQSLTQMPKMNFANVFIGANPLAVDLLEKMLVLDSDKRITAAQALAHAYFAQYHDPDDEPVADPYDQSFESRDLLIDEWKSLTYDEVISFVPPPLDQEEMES
T1 sequence (P49137 whole entry partner): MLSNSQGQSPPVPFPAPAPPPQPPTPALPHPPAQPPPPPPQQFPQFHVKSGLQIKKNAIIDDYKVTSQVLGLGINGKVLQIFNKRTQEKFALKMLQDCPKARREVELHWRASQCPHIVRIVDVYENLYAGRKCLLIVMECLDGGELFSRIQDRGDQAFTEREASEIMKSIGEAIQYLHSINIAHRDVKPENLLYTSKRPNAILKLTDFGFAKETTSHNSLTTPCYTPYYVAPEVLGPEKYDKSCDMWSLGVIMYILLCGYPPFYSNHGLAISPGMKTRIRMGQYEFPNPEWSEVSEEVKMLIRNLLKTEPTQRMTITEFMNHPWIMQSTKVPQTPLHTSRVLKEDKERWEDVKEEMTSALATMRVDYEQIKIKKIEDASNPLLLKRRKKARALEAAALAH

This test concerns the target T1, p38 MAPK/MK2 (Homo sapiens, UniProt Q16539).
T1 construct: purchased Carna (p38α); Abcam (MK2) 04-152; 79910
Nature of the test: In vitro activity assay of p38 MAPK/MK2 (Z-LYTE kinase assay kit). In kind it is biochemical. Particulars: active p38α, inactive MK2, Ser/Thr 4; 1-hour reaction at 20° C. How it is done: The inhibitory effect of the compound on p38 MAPK/MK2 was evaluated using the Z-LYTE kinase assay kit (Thermo, PV3177). The test compound was dissolved in DMSO to obtain a 10 mM stock solution and stored at −20° C. for future use. The initial concentration of the compound was […], with 1% DMSO, 5-fold serial dilution, 8 concentrations, and duplicate wells. […] After a 1-hour reaction at 20° C., Development Reagent A diluted 2048-fold was added to each well, followed by incubation at room temperature for 1 hour. The reaction was terminated by adding 5 μL of stop buffer, and the plate was read using a microplate reader (Ex. 400 nm, Em. 445 nm; Ex. 400 nm, Em. 520 nm). The concentration-effect curve was fitted using GraphPad Prism 8 software, and the compound concentration resulting in 50% inhibition, IC50, was calculated.
For the molecule `COC[C@](C)(O)c1c(F)ccc(-c2cc(-n3c(C)cc(OCc4ncc(F)cc4F)c(Cl)c3=O)c(C)cn2)c1F` (atropisomer, axis not shown) [Compound 149], the 50% inhibitory concentration (IC50) was 2.25 nM.
The value for `Cc1cnc(-c2ccc(F)c([C@@](C)(O)CO)c2)c(F)c1-n1c(C)cc(OCc2ncc(F)cc2F)c(Cl)c1=O` (single isomer, unassigned) [Compound 51-P1] was 1.83 nM; that for `Cc1cnc(-c2ccc(F)c([C@](C)(O)CO)c2F)cc1-n1c(C)cc(OCc2ncc(F)cc2F)c(Cl)c1=O` (single isomer, unassigned) [Compound 65-1] was 1.27 nM.
As for `Cc1cnc(-c2ccc(F)c([C@@](C)(O)CO)c2F)cc1-n1c(C)cc(OCc2ncc(F)cc2F)c(Cl)c1=O` (single isomer, unassigned) [Compound 65-2], inhibition was half-maximal at 1.86 nM (IC50). The IC50 values of the last two molecules are within 1.5-fold of each other.
Then `Cc1cnc(-c2ccc(F)c([C@](C)(O)CO)c2F)cc1-n1c(C)cc(OCc2ncc(F)cc2F)c(Cl)c1=O` (single isomer, unassigned) [Compound 65-P2], with 0.4 nM; and `Cc1cnc(-c2ccc3c(c2)C(C)(O)C(=O)N3)c(F)c1-n1c(C)cc(OCc2ncc(F)cc2F)c(Cl)c1=O` (single isomer, unassigned) [Compound 115-P1], with 0.14 nM.
The value for `Cc1cnc(-c2ccc3c(c2)C(C)(O)C(=O)N3)c(F)c1-n1c(C)cc(OCc2ncc(F)cc2F)c(Cl)c1=O` (single isomer, unassigned) [Compound 115-P2] was 0.7 nM; that for `CNC(=O)C(C)(O)c1c(F)ccc(-c2cc(-n3c(C)cc(OCc4ncc(F)cc4F)c(Cl)c3=O)c(C)cn2)c1F` (single isomer, unassigned) [Compound 116-P2] was 2.26 nM.
Then `CNC(=O)C(C)(O)c1c(F)ccc(-c2cc(-n3c(C)cc(OCc4ncc(F)cc4F)c(Cl)c3=O)c(C)cn2)c1F` (single isomer, unassigned) [Compound 116-P4], with 0.14 nM; and `CNC(=O)C(C)(O)c1cccc(-c2cc(-n3c(C)cc(OCc4ncc(F)cc4F)c(Cl)c3=O)c(C)cn2)c1F` (single isomer, unassigned) [Compound 121-P1], with 6.81 nM; and `CNC(=O)C(C)(O)c1cccc(-c2cc(-n3c(C)cc(OCc4ncc(F)cc4F)c(Cl)c3=O)c(C)cn2)c1F` (single isomer, unassigned) [Compound 121-P2], with 2.83 nM.
Molecule `Cc1cnc(-c2ccc(F)c(C(C)(O)C(N)=O)c2F)cc1-n1c(C)cc(OCc2ncc(F)cc2F)c(Cl)c1=O` (single isomer, unassigned) [Compound 125-P1] came in with an IC50 of 0.41 nM.
Then `Cc1cnc(-c2ccc(F)c(C(C)(O)C(N)=O)c2F)cc1-n1c(C)cc(OCc2ncc(F)cc2F)c(Cl)c1=O` (single isomer, unassigned) [Compound 125-P3], with 0.28 nM; and `Cc1cnc(-c2cccc(C(C)(O)C(N)=O)c2F)cc1-n1c(C)cc(OCc2ncc(F)cc2F)c(Cl)c1=O` (single isomer, unassigned) [Compound 126-P1], with 1.68 nM; and `Cc1cnc(-c2cccc(C(C)(O)C(N)=O)c2F)cc1-n1c(C)cc(OCc2ncc(F)cc2F)c(Cl)c1=O` (single isomer, unassigned) [Compound 126-P3], with 0.28 nM.
The value for `Cc1cnc(-c2cccc(C(=O)NO)c2)cc1-n1c(C)cc(OCc2ncc(F)cc2F)c(Cl)c1=O` [Compound 5] was 90.3 nM; that for `Cc1cnc(-c2cccc(C(=O)NOCCO)c2)cc1-n1c(C)cc(OCc2ncc(F)cc2F)c(Cl)c1=O` [Compound 7] was 87.5 nM.
The molecule `Cc1cnc(-c2cccc(C(=O)N3CC(C)(O)C3)c2)cc1-n1c(C)cc(OCc2ncc(F)cc2F)c(Cl)c1=O` [Compound 10] gave a 50% inhibitory concentration (IC50) of 60.5 nM.
`CNC(=O)c1cc(-c2cc(-n3c(C)cc(OCc4ncc(F)cc4F)c(Cl)c3=O)c(C)cn2)ccc1F` [Compound 17] returned an IC50 of 87.9 nM. This IC50 and that of the molecule before are within 1.5-fold of each other.
The value for `Cc1cnc(-c2cccc(C(N)=O)c2F)cc1-n1c(C)cc(OCc2ncc(F)cc2F)c(Cl)c1=O` [Compound 21-P2] was 0.51 nM.
